Measured values taken from patent US20060183147A1, “Methods of identifying genes which modulate myelination” (Elan Pharmaceuticals, Inc., priority 2005, published 2006).

Tests used:
[1] = tested on: optic nerve oligodendrocytes; assay: In vitro myelination assay: co-culture of retinal ganglion cells and optic nerve oligodendrocytes; format: cell-based, rat
Description: Co-cultures of RGCs and optic nerve oligodendrocytes were prepared and used as follows. Purified oligodendrocytes were plated on PDL/merosin (Chemicon) substrate-coated tissue culture dishes in defined DMEM Sato medium, promoting proliferation for two days. After 2 days, the medium was switched to defined DMEM Sato medium, which contained factors to promote differentiation. Twenty-four hours after the switch to differentiation medium, ADORA1 agonists were added. Retinal ganglion cells were plated 24 hours thereafter, and the medium consisted of 50% astrocyte-conditioned medium (method see above) with DMEM Sato medium mixed with fresh defined Neurobasal™ (Invitrogen) Sato medium, containing B27™ supplement and growth factors (BDNF and CNTF), to promote retinal ganglion cell survival and 0.5% FBS. The FBS was added to help retinal ganglion cell survival. This is because forskolin, which up-regulates cAMP, could not be used when adding any ADORA agonists or antagonists, since these receptors are G-protein-coupled receptors and therefore, regulators of cAMP themselves. Cultures were grown for two weeks, with medium changes occurring every three days.
Optic nerve or cortical oligodendrocytes were purified from postnatal day 2-day 5 old rat pups by immuno-panning with the A2B5 antibody (ATCC). Retinal ganglion cells were purified from 5 day old rats by immunopanning with the Thy1 antibody T11D7.
Purified oligodendrocytes were plated on PDL/merosin substrate-coated tissue culture dishes in defined DMEM Sato medium, promoting proliferation for two days. After 2 days, the medium was switched to defined DMEM Sato medium, containing factors promoting differentiation. Twenty-four hours after the switch to differentiation medium, ADORA1 agonists were added. Retinal ganglion cells were plated 24 hours thereafter, and medium consisted of astrocyte-conditioned medium with DMEM Sato medium mixed with defined Neurobasal™ Sato medium, containing growth factors promoting retinal ganglion cell survival and 0.5% FBS.
Cultures were grown for two weeks, with medium changes occurring every three days. Control co-cultures were devoid of myelin segments, whereas oligodendrocytes co-cultures with ADORA1 agonist contained myelin segments originating from approximately 90% of the oligodendrocytes in these cultures.
To address whether the effect of the adenosine 1 receptor (ADORA1) agonist only affects oligodendrocytes, or also affects retinal ganglion cells (RGCs) to lead to myelination, purified rat optic nerve oligodendrocytes were plated on PEI-pre-coated culture dishes (6-well plates, Falcon BD) in mitogenic medium and cultured for two days. After two days, oligodendrocytes were switched to differentiation medium and the agonist MECA (Sigma) was added at a 200 μM concentration to this culture medium 24 hours later. The agonist was removed by washing the cells at 24, 48 and 72 hours, respectively, after its administration. Oligodendrocytes were subsequently taken off the PEI plates by incubation with Trypsin (535 units/ml) in Earle's Balanced Salt Solution (EBSS; Invitrogen) at 37° C. for 5 minutes, washed with PBS containing 30% FBS (Hyclone) and were plated onto RGCs grown for one week on PDL/merosin substrate. Cultures were fixed for immunohistochemistry two weeks after co-plating the oligodendrocytes with the RGCs. Since the oligodendrocytes were pre-incubated separately with the ADORA1 agonist before they were added to the RGCs, the myelin figures observed in FIG. 6 are due to the switch in the oligodendrocytes themselves from a non-myelinating to a myelinating phenotype.
To address the question of whether it is a permanent or a reversible switch if the oligodendrocytes are cultured without neurons, oligodendrocytes were treated with ADORA1 agonist for 72 hours and kept in culture alone for another 5 days. Cultured oligodendrocytes were then removed from the PEI-coated plate and co-cultured with RGCs grown for one week in culture. […]

[2] = tested on: cortical oligodendrocytes; settings: added to the co-cultures; cited from earlier work

## Nc1ncnc2c1ncn2[C@@H]1O[C@H](CO)[C@@H](O)[C@H]1O [adenosine]
[1]; early versus late stage of oligodendrocyte differentiation
  adenosine responsiveness as measured by percentage of myelination: more responsive to adenosine at the early stage of differentiation
[1]; in the presence of adenosine or ADORA1 agonist, co-culture grown two weeks, control devoid of myelin segments
  oligodendrocytes establishing segments of myelin on individual axons: approximately 90%
[2]
  amount of myelin observed: increased the amount of myelin observed
